According to the kinase profiling compilation of Christmann-Franck et al. (2016):
Several values for one entry are separate records, joined by “and”; a condition that tells them apart may be missing. Equal values may be shown once.

Key:
Assay in all cases: radiometric filter-binding kinase assay, Kinase HotSpot
Conditions in all cases: compound 0.5 µM; ATP 10 µM
ADRBK2 (human) = ADRBK2 (human) (UniProt P35626)
AKT3 (human) = AKT3 (human) (UniProt Q9Y243)
ALK (human) = ALK (human) (UniProt Q9UM73)
CAMK1D (human) = CAMK1D (human) (UniProt Q8IU85)
CDC42BPB (human) = CDC42BPB (human) (UniProt Q9Y5S2)
CDK5 CDK5R1 p35 (human) = CDK5 CDK5R1 p35 (human) (UniProt Q00535+Q15078)
CDK9 CCNT1 (human) = CDK9 CCNT1 (human) (UniProt P50750+O60563)
CHUK (human) = CHUK (human) (UniProt O15111)
CLK3 (human) = CLK3 (human) (UniProt P49761)
CSNK1E (human) = CSNK1E (human) (UniProt P49674)
Chain of CSNK1E (human) (P49674 whole entry, looked up): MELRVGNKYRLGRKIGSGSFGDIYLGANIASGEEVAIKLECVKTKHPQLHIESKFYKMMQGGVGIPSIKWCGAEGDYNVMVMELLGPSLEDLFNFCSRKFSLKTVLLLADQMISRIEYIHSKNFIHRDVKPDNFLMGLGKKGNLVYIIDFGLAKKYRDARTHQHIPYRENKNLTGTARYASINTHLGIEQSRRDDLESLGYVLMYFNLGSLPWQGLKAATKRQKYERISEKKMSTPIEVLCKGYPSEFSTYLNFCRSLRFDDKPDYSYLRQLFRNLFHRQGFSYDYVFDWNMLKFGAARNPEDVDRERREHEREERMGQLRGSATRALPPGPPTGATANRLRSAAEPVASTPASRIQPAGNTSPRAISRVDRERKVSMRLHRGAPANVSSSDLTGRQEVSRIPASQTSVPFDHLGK

CSNK2A2 (human) = CSNK2A2 (human) (UniProt P19784)
EPHA2 (human) = EPHA2 (human) (UniProt P29317)
Chain of EPHA2 (human) (P29317 whole entry, looked up): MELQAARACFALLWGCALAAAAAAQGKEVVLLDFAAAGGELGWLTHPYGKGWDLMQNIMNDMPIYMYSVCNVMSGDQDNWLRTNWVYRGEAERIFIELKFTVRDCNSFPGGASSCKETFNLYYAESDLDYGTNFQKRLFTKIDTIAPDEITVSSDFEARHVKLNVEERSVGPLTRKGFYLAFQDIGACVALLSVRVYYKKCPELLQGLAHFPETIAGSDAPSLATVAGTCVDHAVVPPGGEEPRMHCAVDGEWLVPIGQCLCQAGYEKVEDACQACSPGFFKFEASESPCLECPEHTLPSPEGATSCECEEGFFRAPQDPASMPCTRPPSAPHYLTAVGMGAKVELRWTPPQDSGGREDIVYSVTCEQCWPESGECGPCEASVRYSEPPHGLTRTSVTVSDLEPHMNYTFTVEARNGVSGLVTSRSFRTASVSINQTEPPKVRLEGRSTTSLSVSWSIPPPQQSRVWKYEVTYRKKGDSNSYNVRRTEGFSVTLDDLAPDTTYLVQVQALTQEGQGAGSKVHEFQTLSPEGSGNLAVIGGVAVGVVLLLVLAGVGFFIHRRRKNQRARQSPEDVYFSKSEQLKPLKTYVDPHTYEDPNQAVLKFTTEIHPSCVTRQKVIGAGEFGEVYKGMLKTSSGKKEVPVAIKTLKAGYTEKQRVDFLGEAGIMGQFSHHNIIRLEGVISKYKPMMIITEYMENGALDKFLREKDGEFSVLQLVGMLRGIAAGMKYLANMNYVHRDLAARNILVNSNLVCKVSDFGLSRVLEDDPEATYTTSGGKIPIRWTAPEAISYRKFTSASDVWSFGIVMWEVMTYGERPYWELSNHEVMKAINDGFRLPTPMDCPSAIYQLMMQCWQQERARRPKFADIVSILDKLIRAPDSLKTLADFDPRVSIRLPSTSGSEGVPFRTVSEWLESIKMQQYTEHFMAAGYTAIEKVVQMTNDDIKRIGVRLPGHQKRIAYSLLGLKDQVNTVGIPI

EPHA5 (human) = EPHA5 (human) (UniProt P54756)
Chain of EPHA5 (human) (P54756 whole entry, looked up): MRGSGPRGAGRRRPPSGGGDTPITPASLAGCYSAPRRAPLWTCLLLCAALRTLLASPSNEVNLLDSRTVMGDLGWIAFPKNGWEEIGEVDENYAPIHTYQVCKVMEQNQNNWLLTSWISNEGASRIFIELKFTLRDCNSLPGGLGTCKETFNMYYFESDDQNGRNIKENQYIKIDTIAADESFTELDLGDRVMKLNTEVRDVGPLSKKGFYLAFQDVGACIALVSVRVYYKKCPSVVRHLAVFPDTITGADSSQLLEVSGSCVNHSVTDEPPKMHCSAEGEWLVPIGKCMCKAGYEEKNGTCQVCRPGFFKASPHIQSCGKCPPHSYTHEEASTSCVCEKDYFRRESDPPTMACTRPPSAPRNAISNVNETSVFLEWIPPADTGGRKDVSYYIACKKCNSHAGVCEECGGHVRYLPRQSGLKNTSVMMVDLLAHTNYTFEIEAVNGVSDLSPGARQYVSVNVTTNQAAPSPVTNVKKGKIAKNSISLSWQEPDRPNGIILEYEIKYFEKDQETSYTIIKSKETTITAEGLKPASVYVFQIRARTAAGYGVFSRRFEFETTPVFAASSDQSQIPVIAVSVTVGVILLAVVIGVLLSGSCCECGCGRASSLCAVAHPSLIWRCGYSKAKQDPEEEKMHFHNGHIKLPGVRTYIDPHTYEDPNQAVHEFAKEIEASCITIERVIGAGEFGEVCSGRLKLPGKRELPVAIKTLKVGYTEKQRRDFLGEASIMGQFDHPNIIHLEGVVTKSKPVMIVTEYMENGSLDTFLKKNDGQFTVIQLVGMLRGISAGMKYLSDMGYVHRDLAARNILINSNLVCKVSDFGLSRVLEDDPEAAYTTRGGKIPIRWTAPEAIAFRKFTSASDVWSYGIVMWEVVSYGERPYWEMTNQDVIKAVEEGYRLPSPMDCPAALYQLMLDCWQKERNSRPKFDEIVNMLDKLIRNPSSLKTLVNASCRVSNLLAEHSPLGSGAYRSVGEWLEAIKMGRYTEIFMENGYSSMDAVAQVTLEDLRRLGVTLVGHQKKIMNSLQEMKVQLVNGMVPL

ERBB4 (human) = ERBB4 (human) (UniProt Q15303)
FGFR4 (human) = FGFR4 (human) (UniProt P22455)
GRK4 (human) = GRK4 (human) (UniProt P32298)
HIPK3 (human) = HIPK3 (human) (UniProt Q9H422)
IKBKB (human) = IKBKB (human) (UniProt O14920)
MAP3K11 (human) = MAP3K11 (human) (UniProt Q16584)
MAPK1 (human) = MAPK1 (human) (UniProt P28482)
MAPK12 (human) = MAPK12 (human) (UniProt P53778)
MAPK13 (human) = MAPK13 (human) (UniProt O15264)
MAPK3 (human) = MAPK3 (human) (UniProt P27361)
MARK4 (human) = MARK4 (human) (UniProt Q96L34)
NLK (human) = NLK (human) (UniProt Q9UBE8)
NTRK1 (human) = NTRK1 (human) (UniProt P04629)
NTRK2 (human) = NTRK2 (human) (UniProt Q16620)
NTRK3 (human) = NTRK3 (human) (UniProt Q16288)
PAK3 (human) = PAK3 (human) (UniProt O75914)
PKN2 (human) = PKN2 (human) (UniProt Q16513)
PRKACA (human) = PRKACA (human) (UniProt P17612)
PRKCE (human) = PRKCE (human) (UniProt Q02156)
Chain of PRKCE (human) (Q02156 whole entry, looked up): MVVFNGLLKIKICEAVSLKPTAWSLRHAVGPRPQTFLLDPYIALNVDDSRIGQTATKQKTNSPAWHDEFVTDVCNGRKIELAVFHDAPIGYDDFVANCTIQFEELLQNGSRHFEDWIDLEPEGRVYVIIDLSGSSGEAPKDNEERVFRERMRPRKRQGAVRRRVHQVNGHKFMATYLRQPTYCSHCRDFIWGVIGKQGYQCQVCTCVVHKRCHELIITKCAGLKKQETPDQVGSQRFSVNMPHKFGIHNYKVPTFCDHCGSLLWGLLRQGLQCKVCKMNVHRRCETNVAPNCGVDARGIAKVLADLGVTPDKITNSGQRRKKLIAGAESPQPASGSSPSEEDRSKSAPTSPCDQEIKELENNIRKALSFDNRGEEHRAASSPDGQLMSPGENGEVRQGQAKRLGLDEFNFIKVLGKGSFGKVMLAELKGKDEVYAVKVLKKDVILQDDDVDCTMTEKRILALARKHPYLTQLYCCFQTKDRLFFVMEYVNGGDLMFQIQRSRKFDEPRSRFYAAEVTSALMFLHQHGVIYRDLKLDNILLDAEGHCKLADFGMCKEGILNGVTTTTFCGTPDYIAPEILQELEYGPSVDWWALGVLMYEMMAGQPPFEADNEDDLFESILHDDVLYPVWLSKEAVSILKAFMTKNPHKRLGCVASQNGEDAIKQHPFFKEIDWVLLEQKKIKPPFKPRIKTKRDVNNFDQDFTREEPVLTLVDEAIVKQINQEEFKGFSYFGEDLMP

PRKCG (human) = PRKCG (human) (UniProt P05129)
PRKG1 (human) = PRKG1 (human) (UniProt Q13976)
Chain of PRKG1 (human) (Q13976 whole entry, looked up): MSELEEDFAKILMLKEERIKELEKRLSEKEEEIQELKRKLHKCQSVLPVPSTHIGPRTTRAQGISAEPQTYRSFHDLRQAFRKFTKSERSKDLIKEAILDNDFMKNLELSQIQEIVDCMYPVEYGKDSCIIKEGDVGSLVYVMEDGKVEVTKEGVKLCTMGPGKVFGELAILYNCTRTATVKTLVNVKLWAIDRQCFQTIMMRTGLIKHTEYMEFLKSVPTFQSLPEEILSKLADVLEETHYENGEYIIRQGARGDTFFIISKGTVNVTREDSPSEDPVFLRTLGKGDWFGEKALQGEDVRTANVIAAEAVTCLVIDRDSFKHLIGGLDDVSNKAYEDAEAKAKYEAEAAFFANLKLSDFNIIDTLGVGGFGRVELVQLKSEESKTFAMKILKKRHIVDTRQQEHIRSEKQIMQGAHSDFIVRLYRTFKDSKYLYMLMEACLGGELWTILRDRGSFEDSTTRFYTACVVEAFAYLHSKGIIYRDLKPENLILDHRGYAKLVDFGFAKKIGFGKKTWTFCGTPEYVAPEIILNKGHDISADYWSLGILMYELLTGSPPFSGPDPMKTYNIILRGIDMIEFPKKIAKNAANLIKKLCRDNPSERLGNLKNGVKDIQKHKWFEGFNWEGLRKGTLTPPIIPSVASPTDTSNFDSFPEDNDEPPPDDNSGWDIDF

PRKG2 (human) = PRKG2 (human) (UniProt Q13237)
RAF1 (human) = RAF1 (human) (UniProt P04049)
Chain of RAF1 (human) (P04049 whole entry, looked up): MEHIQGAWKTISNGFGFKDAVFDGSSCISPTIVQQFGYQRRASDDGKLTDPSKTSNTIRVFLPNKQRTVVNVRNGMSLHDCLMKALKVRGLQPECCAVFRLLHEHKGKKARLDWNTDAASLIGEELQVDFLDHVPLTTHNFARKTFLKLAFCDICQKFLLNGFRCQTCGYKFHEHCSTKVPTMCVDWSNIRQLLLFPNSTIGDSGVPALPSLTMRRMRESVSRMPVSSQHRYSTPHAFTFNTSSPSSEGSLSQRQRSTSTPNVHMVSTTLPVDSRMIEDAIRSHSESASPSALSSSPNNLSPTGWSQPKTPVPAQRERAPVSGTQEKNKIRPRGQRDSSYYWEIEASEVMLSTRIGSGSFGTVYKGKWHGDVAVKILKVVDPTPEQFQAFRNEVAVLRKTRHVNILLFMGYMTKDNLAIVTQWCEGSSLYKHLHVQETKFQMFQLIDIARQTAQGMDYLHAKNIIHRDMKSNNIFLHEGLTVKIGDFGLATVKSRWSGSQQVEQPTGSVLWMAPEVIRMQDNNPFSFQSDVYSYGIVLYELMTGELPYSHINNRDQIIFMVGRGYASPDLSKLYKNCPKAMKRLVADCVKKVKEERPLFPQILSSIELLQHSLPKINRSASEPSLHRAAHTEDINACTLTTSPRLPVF

ROCK2 (human) = ROCK2 (human) (UniProt O75116)
STK11 (human) = STK11 (human) (UniProt Q15831)
TGFBR2 (human) = TGFBR2 (human) (UniProt P37173)
TSSK1B (human) = TSSK1B (human) (UniProt Q9BXA7)
ULK1 (human) = ULK1 (human) (UniProt O75385)
WNK3 (human) = WNK3 (human) (UniProt Q9BYP7)

Chain of AKT3 (human) (Q9Y243 whole entry, looked up): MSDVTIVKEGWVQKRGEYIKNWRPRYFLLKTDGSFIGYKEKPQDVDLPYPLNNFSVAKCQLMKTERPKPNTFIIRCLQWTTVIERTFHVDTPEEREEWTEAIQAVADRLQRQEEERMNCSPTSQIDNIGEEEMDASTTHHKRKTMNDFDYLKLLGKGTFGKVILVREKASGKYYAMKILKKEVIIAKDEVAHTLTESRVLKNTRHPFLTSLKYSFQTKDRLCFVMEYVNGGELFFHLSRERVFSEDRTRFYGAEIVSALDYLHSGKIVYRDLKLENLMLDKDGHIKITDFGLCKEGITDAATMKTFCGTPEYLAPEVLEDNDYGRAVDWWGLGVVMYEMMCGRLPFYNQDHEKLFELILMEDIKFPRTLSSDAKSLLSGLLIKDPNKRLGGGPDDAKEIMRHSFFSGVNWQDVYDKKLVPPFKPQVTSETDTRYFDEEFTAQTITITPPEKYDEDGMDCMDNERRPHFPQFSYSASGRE

COc1cc2ncnc(Nc3cccc(Cl)c3)c2cc1OC
residual activity (ADRBK2 (human)): 99.9% | residual activity (AKT3 (human)): 98.3% | residual activity (ALK (human)): 91.5% | residual activity (CAMK1D (human)): 96.6% | residual activity (CDC42BPB (human)): 84.9% | residual activity (CDK5 CDK5R1 p35 (human)): 91% | residual activity (CDK9 CCNT1 (human)): 85.1% | residual activity (CHUK (human)): 103% | residual activity (CLK3 (human)): 90.5% | residual activity (CSNK1E (human)): 75.3% | residual activity (CSNK2A2 (human)): 92.3% | residual activity (EPHA2 (human)): 85.2% | residual activity (EPHA5 (human)): 68.3% | residual activity (ERBB4 (human)): 35.5% | residual activity (FGFR4 (human)): 78.7% | residual activity (GRK4 (human)): 102% | residual activity (HIPK3 (human)): 98.9% | residual activity (IKBKB (human)): 102% | residual activity (MAP3K11 (human)): 84.1% | residual activity (MAPK1 (human)): 91.7% | residual activity (MAPK12 (human)): 98.5% | residual activity (MAPK13 (human)): 99.8% | residual activity (MAPK3 (human)): 96.4% | residual activity (MARK4 (human)): 98.5% | residual activity (NLK (human)): 83.1% | residual activity (NTRK1 (human)): 92.6% | residual activity (NTRK2 (human)): 93.3% | residual activity (NTRK3 (human)): 86.3% | residual activity (PAK3 (human)): 98.9% | residual activity (PKN2 (human)): 89.8% | residual activity (PRKACA (human)): 98.6% | residual activity (PRKCE (human)): 97.8% | residual activity (PRKCG (human)): 105% | residual activity (PRKG1 (human)): 93.8% and 95.2% | residual activity (PRKG2 (human)): 92.2% | residual activity (RAF1 (human)): 78.4% | residual activity (ROCK2 (human)): 92.6% | residual activity (STK11 (human)): 96.8% | residual activity (TGFBR2 (human)): 94.5% | residual activity (TSSK1B (human)): 95.7% | residual activity (ULK1 (human)): 84.7% | residual activity (WNK3 (human)): 97.8%

CC#CC(=O)Nc1cc2c(Nc3ccc(F)c(Cl)c3)ncnc2cn1
residual activity (ADRBK2 (human)): 103% | residual activity (AKT3 (human)): 97.8% | residual activity (ALK (human)): 103% | residual activity (CAMK1D (human)): 107% | residual activity (CDC42BPB (human)): 96.4% | residual activity (CDK5 CDK5R1 p35 (human)): 97.9% | residual activity (CDK9 CCNT1 (human)): 90.6% | residual activity (CHUK (human)): 92.1% | residual activity (CLK3 (human)): 47.1% | residual activity (CSNK1E (human)): 93.6% | residual activity (CSNK2A2 (human)): 96.5% | residual activity (EPHA2 (human)): 103% | residual activity (EPHA5 (human)): 101% | residual activity (ERBB4 (human)): 1.95% | residual activity (FGFR4 (human)): 102% | residual activity (GRK4 (human)): 104% | residual activity (HIPK3 (human)): 92.9% | residual activity (IKBKB (human)): 102% | residual activity (MAP3K11 (human)): 99.3% | residual activity (MAPK1 (human)): 101% | residual activity (MAPK12 (human)): 99.4% | residual activity (MAPK13 (human)): 105% | residual activity (MAPK3 (human)): 100% | residual activity (MARK4 (human)): 101% | residual activity (NLK (human)): 99.7% | residual activity (NTRK1 (human)): 98.5% | residual activity (NTRK2 (human)): 100% | residual activity (NTRK3 (human)): 95.3% | residual activity (PAK3 (human)): 99% | residual activity (PKN2 (human)): 95% | residual activity (PRKACA (human)): 97.7% | residual activity (PRKCE (human)): 88.3% | residual activity (PRKCG (human)): 97.2% | residual activity (PRKG1 (human)): 91.7% and 97.6% | residual activity (PRKG2 (human)): 105% | residual activity (RAF1 (human)): 85.6% | residual activity (ROCK2 (human)): 98.7% | residual activity (STK11 (human)): 99.6% | residual activity (TGFBR2 (human)): 123% | residual activity (TSSK1B (human)): 104% | residual activity (ULK1 (human)): 96.6% | residual activity (WNK3 (human)): 95.1%
